How the values were obtained:
Assay in all cases: General post-emergent herbicidal activity, foliar application
Assay type in all cases: in vivo
[1] = test system: Amaranthus retroflexus L. (pigweed, redroot); conditions: for GR80 Value AMARE: calculated by probit analysis, dose for 80% visual injury, may be extrapolated; for pest or weed control at 35 g/ha: 35 g ai/ha; for pest or weed control at 140 g/ha: 140 g ai/ha
Procedure, shortened: (§1)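 Compounds in acetone/DMSO (97:3) were diluted into aqueous spray containing isopropyl alcohol, Atplus 411F crop oil and Triton X-155, then applied post-emergence to foliage at a top rate plus 1/2× to 1/16× serial dilutions. Injury was scored visually (0–100%) after 14 days in a sub-irrigated greenhouse versus untreated plants. GR20/GR50/GR80 were derived by probit analysis, with some GR80 values extrapolated from curve slope.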

[2] = test system: Chenopodium album L. (lambsquarters, common); conditions: for GR80 Value CHEAL: calculated by probit analysis, dose for 80% visual injury, may be extrapolated; for pest or weed control at 35 g/ha: 35 g ai/ha; for pest or weed control at 70 g/ha: 70 g ai/ha; for pest or weed control at 140 g/ha: 140 g ai/ha
Procedure, shortened: as §1

[3] = test system: Echinochloa crus-galli (L.) Beauv. (barnyardgrass); conditions: for GR80 Value ECHCG: calculated by probit analysis, dose for 80% visual injury, may be extrapolated; for pest or weed control at 35 g/ha: 35 g ai/ha; for pest or weed control at 70 g/ha: 70 g ai/ha; for pest or weed control at 140 g/ha: 140 g ai/ha
Procedure, shortened: as §1

[4] = test system: Euphorbia heterophylla L. (poinsettia, wild); conditions: for GR80 Value EPHHL: calculated by probit analysis, dose for 80% visual injury, may be extrapolated; for pest or weed control at 35 g/ha: 35 g ai/ha; for pest or weed control at 70 g/ha: 70 g ai/ha; for pest or weed control at 140 g/ha: 140 g ai/ha
Procedure, shortened: as §1

[5] = test system: Helianthus annuus L. (sunflower, common); conditions: for GR80 Value HELAN: calculated by probit analysis, dose for 80% visual injury, may be extrapolated; for pest or weed control at 35 g/ha: 35 g ai/ha; for pest or weed control at 70 g/ha: 70 g ai/ha; for pest or weed control at 140 g/ha: 140 g ai/ha
Procedure, shortened: as §1

[6] = test system: Viola tricolor L. (pansy); conditions: for GR80 Value VIOTR: calculated by probit analysis, dose for 80% visual injury, may be extrapolated; for pest or weed control at 35 g/ha: 35 g ai/ha; for pest or weed control at 70 g/ha: 70 g ai/ha; for pest or weed control at 140 g/ha: 140 g ai/ha
Procedure, shortened: as §1

Oryza sativa L. (rice) = conditions: Oryza sativa, 336 h, scored after 14 days, read-out: % Visual Growth Reduction ORYSA; for plant injury at 35 g/ha: 35 g ai/ha; for plant injury at 70 g/ha: 70 g ai/ha; for plant injury at 140 g/ha: 140 g ai/ha
Procedure, shortened: (§2)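 Injury rated visually 14 days after treatment on a 0 (none) to 100% (complete kill) scale against untreated plants; greenhouse-grown, sub-irrigated to avoid wash-off. Foliar spray in aqueous acetone/DMSO with isopropanol, crop oil concentrate and Triton X-155, at a highest rate and 2-fold serial dilutions down to 1/16×.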

Zea mays L. (corn) = conditions: 336 h, scored after 14 days, read-out: % Visual Growth Reduction ZEAMX; for plant injury at 35 g/ha: 35 g ai/ha; for plant injury at 70 g/ha: 70 g ai/ha; for plant injury at 140 g/ha: 140 g ai/ha
Procedure, shortened: as §2

[7] = Amaranthus retroflexus, 336 h, foliar post-emergent, scored after 14 days, read-out: % Visual Growth Reduction AMARE
[8] = Chenopodium album, 336 h, foliar post-emergent, scored after 14 days, read-out: % Visual Growth Reduction CHEAL
[9] = Echinochloa crus-galli, 336 h, foliar post-emergent, scored after 14 days, read-out: % Visual Growth Reduction ECHCG
[10] = Euphorbia heterophylla, 336 h, foliar post-emergent, scored after 14 days, read-out: % Visual Growth Reduction EPHHL
[11] = Helianthus annuus, 336 h, foliar post-emergent, scored after 14 days, read-out: % Visual Growth Reduction HELAN
[12] = Viola tricolor, 336 h, foliar post-emergent, scored after 14 days, read-out: % Visual Growth Reduction VIOTR

Question: Which pest or weed control at 37 g/ha ([1]; Amaranthus retroflexus, 336 h, 37 g ai/ha, foliar post-emergent, scored after 14 days, read-out: % Visual Growth Reduction AMARE) does the source give for `COC(=O)c1nc(CF)cc(N)c1Cl` [Compound F26, methyl 4-amino-3-chloro-6-(fluoromethyl)picolinate] here?
Answer: 0%

Question: What about the pest or weed control at 74 g/ha ([1]; Amaranthus retroflexus, 336 h, 74 g ai/ha, foliar post-emergent, scored after 14 days, read-out: % Visual Growth Reduction AMARE) of the same compound?
Answer: 80%

Question: What about the pest or weed control at 148 g/ha ([1]; Amaranthus retroflexus, 336 h, 148 g ai/ha, foliar post-emergent, scored after 14 days, read-out: % Visual Growth Reduction AMARE) of the same compound?
Answer: 90%

Question: And the “GR80 Value AMARE” value [1]?
Answer: 104 g ai/ha

Question: What about the pest or weed control at 37 g/ha ([2]; Chenopodium album, 336 h, 37 g ai/ha, foliar post-emergent, scored after 14 days, read-out: % Visual Growth Reduction CHEAL) of the same compound?
Answer: 90%

Question: And the pest or weed control at 74 g/ha ([2]; Chenopodium album, 336 h, 74 g ai/ha, foliar post-emergent, scored after 14 days, read-out: % Visual Growth Reduction CHEAL)?
Answer: 90%

Question: What about the pest or weed control at 148 g/ha ([2]; Chenopodium album, 336 h, 148 g ai/ha, foliar post-emergent, scored after 14 days, read-out: % Visual Growth Reduction CHEAL) of the same compound?
Answer: 90%

Question: And the “GR80 Value CHEAL” value [2]?
Answer: 29 g ai/ha

Question: What about the pest or weed control at 37 g/ha ([3]; Echinochloa crus-galli, 336 h, 37 g ai/ha, foliar post-emergent, scored after 14 days, read-out: % Visual Growth Reduction ECHCG) of the same compound?
Answer: 0%

Question: And the pest or weed control at 74 g/ha ([3]; Echinochloa crus-galli, 336 h, 74 g ai/ha, foliar post-emergent, scored after 14 days, read-out: % Visual Growth Reduction ECHCG)?
Answer: 0%

Question: What about the pest or weed control at 148 g/ha ([3]; Echinochloa crus-galli, 336 h, 148 g ai/ha, foliar post-emergent, scored after 14 days, read-out: % Visual Growth Reduction ECHCG) of the same compound?
Answer: 20%

Question: What about the “GR80 Value ECHCG” value [3] of the same compound?
Answer: >148 g ai/ha

Question: What about the pest or weed control at 37 g/ha ([4]; Euphorbia heterophylla, 336 h, 37 g ai/ha, foliar post-emergent, scored after 14 days, read-out: % Visual Growth Reduction EPHHL) of the same compound?
Answer: 90%

Question: And the pest or weed control at 74 g/ha ([4]; Euphorbia heterophylla, 336 h, 74 g ai/ha, foliar post-emergent, scored after 14 days, read-out: % Visual Growth Reduction EPHHL)?
Answer: 100%

Question: And the pest or weed control at 148 g/ha ([4]; Euphorbia heterophylla, 336 h, 148 g ai/ha, foliar post-emergent, scored after 14 days, read-out: % Visual Growth Reduction EPHHL)?
Answer: 100%

Question: What about the “GR80 Value EPHHL” value [4] of the same compound?
Answer: 38.8 g ai/ha

Question: What about the pest or weed control at 37 g/ha ([5]; Helianthus annuus, 336 h, 37 g ai/ha, foliar post-emergent, scored after 14 days, read-out: % Visual Growth Reduction HELAN) of the same compound?
Answer: 70%

Question: And the pest or weed control at 74 g/ha ([5]; Helianthus annuus, 336 h, 74 g ai/ha, foliar post-emergent, scored after 14 days, read-out: % Visual Growth Reduction HELAN)?
Answer: 90%

Question: And the pest or weed control at 148 g/ha ([5]; Helianthus annuus, 336 h, 148 g ai/ha, foliar post-emergent, scored after 14 days, read-out: % Visual Growth Reduction HELAN)?
Answer: 90%

Question: What about the “GR80 Value HELAN” value [5] of the same compound?
Answer: 48.3 g ai/ha

Question: And the pest or weed control at 37 g/ha ([6]; Viola tricolor, 336 h, 37 g ai/ha, foliar post-emergent, scored after 14 days, read-out: % Visual Growth Reduction VIOTR)?
Answer: 10%

Question: What about the pest or weed control at 74 g/ha ([6]; Viola tricolor, 336 h, 74 g ai/ha, foliar post-emergent, scored after 14 days, read-out: % Visual Growth Reduction VIOTR) of the same compound?
Answer: 15%

Question: And the pest or weed control at 148 g/ha ([6]; Viola tricolor, 336 h, 148 g ai/ha, foliar post-emergent, scored after 14 days, read-out: % Visual Growth Reduction VIOTR)?
Answer: 70%

Question: What about the “GR80 Value VIOTR” value [6] of the same compound?
Answer: 223 g ai/ha

Question: And the plant injury at 37 g/ha (Oryza sativa L. (rice); 37 g ai/ha)?
Answer: 0%

Question: And the plant injury at 74 g/ha (Oryza sativa L. (rice); 74 g ai/ha)?
Answer: 0%

Question: And the plant injury at 148 g/ha (Oryza sativa L. (rice); 148 g ai/ha)?
Answer: 0%

Question: And the plant injury at 37 g/ha (Zea mays L. (corn); 37 g ai/ha)?
Answer: 0%

Question: And the plant injury at 74 g/ha (Zea mays L. (corn); 74 g ai/ha)?
Answer: 0%

Question: And the plant injury at 148 g/ha (Zea mays L. (corn); 148 g ai/ha)?
Answer: 10%

Question: What does the source list for `COC(=O)c1nc(C(C)F)c(F)c(N)c1Cl` (centres unmarked) [Compound F15, Methyl 4-amino-3-chloro-5-fluoro-6-(1-fluoroethyl)picolinate]?
Answer: pest or weed control at 35 g/ha [1, 7]: 90%; pest or weed control at 70 g/ha ([1]; Amaranthus retroflexus, 336 h, 70 g ai/ha, foliar post-emergent, scored after 14 days, read-out: % Visual Growth Reduction AMARE): 90%; pest or weed control at 140 g/ha [1, 7]: 95%; GR80 Value AMARE [1]: 22.3 g ai/ha; pest or weed control at 35 g/ha [2, 8]: 80%; pest or weed control at 70 g/ha [2, 8]: 85%; pest or weed control at 140 g/ha [2, 8]: 80%; GR80 Value CHEAL [2]: 48.6 g ai/ha; pest or weed control at 35 g/ha [3, 9]: 0%; pest or weed control at 70 g/ha [3, 9]: 20%; pest or weed control at 140 g/ha [3, 9]: 30%; GR80 Value ECHCG [3]: >140 g ai/ha; pest or weed control at 35 g/ha [4, 10]: 55%; pest or weed control at 70 g/ha [4, 10]: 85%; pest or weed control at 140 g/ha [4, 10]: 90%; GR80 Value EPHHL [4]: 75.1 g ai/ha; pest or weed control at 35 g/ha [5, 11]: 80%; pest or weed control at 70 g/ha [5, 11]: 90%; pest or weed control at 140 g/ha [5, 11]: 100%; GR80 Value HELAN [5]: 24.4 g ai/ha; pest or weed control at 35 g/ha [6, 12]: 25%; pest or weed control at 70 g/ha [6, 12]: 45%; pest or weed control at 140 g/ha [6, 12]: 55%; GR80 Value VIOTR [6]: >140 g ai/ha; plant injury at 35 g/ha (Oryza sativa L. (rice)): 0%; plant injury at 70 g/ha (Oryza sativa L. (rice)): 0%; plant injury at 140 g/ha (Oryza sativa L. (rice)): 0%; plant injury at 35 g/ha (Zea mays L. (corn)): 0%; plant injury at 70 g/ha (Zea mays L. (corn)): 0%; plant injury at 140 g/ha (Zea mays L. (corn)): 0%

Question: What does the source list for `Nc1c(Cl)c(C(=O)O)nc(C(F)F)c1Cl` [Compound F13, 4-Amino-3,5-dichloro-6-(difluoromethyl)picolinic acid]?
Answer: pest or weed control at 35 g/ha [1, 7]: 90%; pest or weed control at 140 g/ha [1, 7]: 90%; GR80 Value AMARE [1]: 27.6 g ai/ha; pest or weed control at 35 g/ha [2, 8]: 90%; pest or weed control at 70 g/ha [2, 8]: 90%; pest or weed control at 140 g/ha [2, 8]: 90%; GR80 Value CHEAL [2]: 25.1 g ai/ha; pest or weed control at 35 g/ha [3, 9]: 0%; pest or weed control at 70 g/ha [3, 9]: 0%; pest or weed control at 140 g/ha [3, 9]: 10%; GR80 Value ECHCG [3]: >149 g ai/ha; pest or weed control at 35 g/ha [4, 10]: 100%; pest or weed control at 70 g/ha [4, 10]: 100%; pest or weed control at 140 g/ha [4, 10]: 100%; GR80 Value EPHHL [4]: 21.7 g ai/ha; pest or weed control at 35 g/ha [5, 11]: 60%; pest or weed control at 70 g/ha [5, 11]: 75%; pest or weed control at 140 g/ha [5, 11]: 85%; GR80 Value HELAN [5]: 85.8 g ai/ha; pest or weed control at 35 g/ha [6, 12]: 0%; pest or weed control at 70 g/ha [6, 12]: 0%; pest or weed control at 140 g/ha [6, 12]: 0%; GR80 Value VIOTR [6]: >140 g ai/ha; plant injury at 35 g/ha (Oryza sativa L. (rice)): 0%; plant injury at 70 g/ha (Oryza sativa L. (rice)): 0%; plant injury at 140 g/ha (Oryza sativa L. (rice)): 0%; plant injury at 35 g/ha (Zea mays L. (corn)): 0%; plant injury at 70 g/ha (Zea mays L. (corn)): 0%; plant injury at 140 g/ha (Zea mays L. (corn)): 5%

— patent US9603364B2 (Dow AgroSciences LLC, priority 2013, dated 2017)
